Results published in patent publication US20060252732A1, “Blood vessel-growth promoter” (priority 2003, published 2006).

Columns and labels:
[1] = test system: human vascular endothelial cells (HUVEC) and fibroblast; test: Measurement of neo-vascularization ability (tube formation, CD31 staining, Angiogenesis Kit KZ-1000); assay type: cell-based
Procedure: Measurement of Neo-Vascularization Ability
The tube formation by a mixture-system of human vascular endothelial cells (HUVEC) and fibroblast was investigated by CD31 staining kit (Kurabo Ind.) to be visualized, and be made score by an analytical soft (NIH Image). A broth containing acetylsalicylic (0.5, 5.5, 55 μM; changed every three days) was added to neo-vascularization kit (Angiogenesis Kit KZ-1000; Kurabo Ind.) prepared by mixing human vascular endothelial cells and fibroblast, and the resulting broth was cultivated for 11 days. Then immuno histochemical study was performed by using CD31 staining kit, and the color photo was taken. The picture was analyzed using NIH Image and the amount of the formed tubes was scored as an area to evaluate. As a positive control, vascula endothelial growth factor (VEGF; 10 ng/mL) and as a negative control sramine (100 μM) were used, respectively.

[2] = test system: human umbilical vein endothelial cells (HUVEC); test: Proliferation test on human umbilical vein endothelial cells (HUVEC); assay type: cell-based
Procedure: Proliferation Test on Human Umbilical Vein Endothelial Cells (HUVEC) […] After the culture broth was filtered by suction, to a minimum essential medium (MEM) broth containing 1% FBS, acetylsalicylic acid was added at a concentration (0, 0.055, 0.55, 5.5, 55, 555 μM, respectively) and each mixture was cultivated. After 0, 24 and 48 hours the number of alive cells was counted. As a positive control vascular endothelial growth factor (VEGF; Vascular Endothelial Growth Factor-A) (20 ng/mL) was used. In this measurement, Cell Counting Kit-8 (Dojin Chemical Co.) was used.

[3] = test system: Wister female rats; test: Neo-vascularization test using rats (subcutaneous urethane sponge, carmine dye); assay type: in vivo, rat
Procedure: Neo-Vascularization Test Using Rats
Wister female rats (7 weeks old; n=6) were anesthetized with ether, and a urethane sponge (diameter: 8 mm) previously permeating a drug was inserted in subcutaneous tissue of right shoulder. As a test drug, acetylsalicylic acid (2 mg) and as a positive control retinoid (0.5 mg) were administered, respectively. Four days later after insertion of the sponge, 5% gelatin solution containing 5% carmine dye kept at 37° C. was administered under ether anesthesia in tail vein of the rat. After injection, the rats in suspended animation were left at 4° C. for 2 hours, and the gelatin solution containing carmine dye distributed in blood vessel was solidified. After butcher of the rats, the sponge with granulation tissue was extracted and the dye therein was extracted. Absorbancy at 530 nm was measured to calculate the amount of the carmine dye.

Which “Neo-vascularization ability, Relative area After 11 days” value ([1]; 100 μM (negative control)) does the source give for `Cc1ccc(C(=O)Nc2ccc(S(=O)(=O)O)c3cc(S(=O)(=O)O)cc(S(=O)(=O)O)c23)cc1NC(=O)c1cccc(NC(=O)Nc2cccc(C(=O)Nc3cc(C(=O)Nc4ccc(S(=O)(=O)O)c5cc(S(=O)(=O)O)cc(S(=O)(=O)O)c45)ccc3C)c2)c1` [Sramine, sramine] here?
Its value is 0.04.

What does the source list for `CC(=O)Oc1ccccc1C(=O)O` [Acetylsalicylic acid, acetylsalicylic acid]?
Change of the number of HUVEC, Relative absorvancy ([2]; 0.055 μM drug, after 0 hour): 1.102; Change of the number of HUVEC, Relative absorvancy ([2]; 0.055 μM drug, after 24 hours): 1.252; Change of the number of HUVEC, Relative absorvancy ([2]; 0.055 μM drug, after 48 hours): 1.303; Change of the number of HUVEC, Relative absorvancy ([2]; 0.55 μM drug, after 0 hour): 1.144; Change of the number of HUVEC, Relative absorvancy ([2]; 0.55 μM drug, after 24 hours): 2.001; Change of the number of HUVEC, Relative absorvancy ([2]; 0.55 μM drug, after 48 hours): 1.709; Change of the number of HUVEC, Relative absorvancy ([2]; 5.5 μM drug, after 0 hour): 1.084; Change of the number of HUVEC, Relative absorvancy ([2]; 5.5 μM drug, after 24 hours): 1.811; Change of the number of HUVEC, Relative absorvancy ([2]; 5.5 μM drug, after 48 hours): 1.575; Change of the number of HUVEC, Relative absorvancy ([2]; 55 μM drug, after 0 hour): 1.107; Change of the number of HUVEC, Relative absorvancy ([2]; 55 μM drug, after 24 hours): 1.754; Change of the number of HUVEC, Relative absorvancy ([2]; 55 μM drug, after 48 hours): 1.475; Change of the number of HUVEC, Relative absorvancy ([2]; 555 μM drug, after 0 hour): 1.017; Change of the number of HUVEC, Relative absorvancy ([2]; 555 μM drug, after 24 hours): 1.044; Change of the number of HUVEC, Relative absorvancy ([2]; 555 μM drug, after 48 hours): 0.699; Proliferation promoting activity of HUVEC ([2]; added in more than 0.055 μM): proliferation promoting activity of HUVEC was confirmed; Proliferation promoting effect on HUVEC ([2]; added in more than 555 μM): proliferation promoting effect was not recognized or was even depressed; Tube-formation promoting activity [1]: showed tube-formation promoting activity; Neo-vascularization ability, Relative area After 11 days ([1]; 5.5 μM): 1.17; Neo-vascularization ability, Relative area After 11 days ([1]; 55 μM): 1.08; Neo-vascularization promoting activity in vivo [3]: neo-vascularization promoting activity was shown; Amount of carmine dye ([3]; 2 mg in sponge, subcutaneous, 4 days after insertion): 16.0 ± 4.2 µg/mL

What does the source list for VEGF?
Change of the number of HUVEC, Relative absorvancy ([2]; 20 ng/mL (positive control), after 0 hour): 1.003; Change of the number of HUVEC, Relative absorvancy ([2]; 20 ng/mL (positive control), after 24 hours): 2.041; Change of the number of HUVEC, Relative absorvancy ([2]; 20 ng/mL (positive control), after 48 hours): 1.889; Neo-vascularization ability, Relative area After 11 days ([1]; 10 ng/mL (positive control)): 1.71
